Experimental data: patent US20240307547A1, “NOVEL COMPOUNDS WHICH BIND TO CEREBLON, AND METHODS OF USE THEREOF” (Captor Therapeutics S.A., priority 2020, published 2024)

How the values were obtained:
H929 (myeloma) = assay: Viability, CTG (CellTiter-Glo) assay; type: cell-based; conditions: Homo sapiens, NCI-H929, H929, 72 hours, 100% = DMSO, read-out: Average of % viability of quadruplicate
Procedure: Three thousand cells in 50 μL of culture medium were plated in 384-well plate, and incubated with 50, 13, and 2 μM of each compound for 72 hours. ATP content in the remaining cells after the treatment was quantitated with the CellTiter-Glo Luminescent Viability Assay Kit (Promega). The activity of the compound at each concentration was shown as percentage viability; 100% viability was the ATP content in the cells incubated with DMSO, the carrier of the compounds.

SALL4 = SALL4 degradation assay, Kelly cell line (western blot densitometry); type: cell-based; conditions: Kelly cells, after 24 h
Procedure: Kelly cells were maintained in RPMI-1640 medium, supplemented with penicillin/streptomycin and 10% Fetal Bovine Serum (FBS). Cells were seeded on 6-well plates, and the compounds to be tested were added at the desired concentration range. Final DMSO concentration was 0.25%. After 24 h incubation (37° C., 5% CO2), cells were washed and cell lysates were prepared using RIPA lysis buffer. The amount of protein was determined via BCA assay, and the appropriate quantity was then loaded on the precast gel for the protein separation. After primary and secondary antibody staining, the membranes were washed and signals developed. The densitometry analysis was implemented to obtain the numeric values used later in the protein level evaluation process.
Densitometry values are normalized to the loading control (β-ACTIN) and presented as % of DMSO control in Table 2, below, using the following labels: • ≤25% for 0-25% of SALL4 protein reduction, • >25% for 26-74% of SALL4 protein reduction, • ≥75% for 75-100% of SALL4 protein reduction.

IKZF1 = IKZF1 degradation assay, H929 cell line (western blot densitometry); type: cell-based; conditions: H929 cells, after 24 h
Procedure: (§1) H929 cells were maintained in RPMI-1640 medium, supplemented with penicillin/streptomycin, 10% Fetal Bovine Serum (FBS) and 0.05 mM 2-Mercaptoethanol. Cells were seeded on 6- or 12-well plates, and the compounds to be tested were added at the desired concentration range. Final DMSO concentration was 0.25%. After 24 h incubation (37° C., 5% CO2), cells were harvested, washed and cell lysates were prepared using RIPA lysis buffer. The amount of protein was determined via BCA assay, and the appropriate quantity was then loaded on the precast gel for the protein separation. After primary and secondary Ab staining, the membranes were washed and signals developed. The densitometry analysis was implemented to obtain the numeric values used later in the protein level evaluation process.
Densitometry values are normalized to the loading control (β-ACTIN) and presented as % of DMSO control in Table 3, below, using the following labels: • ≤25% for 0-25% of IKZF1 protein reduction, • >25% for 26-74% of IKZF1 protein reduction, • ≥75% for 75-100% of IKZF1 protein reduction.

[1] = target: CRBN-DDB1 protein complex (Homo sapiens, UniProt Q96SW2); assay: Fluorescence polarization (FP) assay, displacement of Cy5-labelled thalidomide; conditions: read-out: CRBN binding Ki; further: 25 nM CRBN-DDB1
Procedure: The test solution was added to a 384-well assay plate.
The plate was spun-down (1 min, 1000 rpm, 22° C.) and then shaken using a VibroTurbulator for 10 min at room temperature (20-25° C.), with the frequency set to level 3. The assay plate with protein and the tracer was incubated for 60 min at room temperature (20-25° C.) prior to read-out with a plate reader.
The FP experiment was carried out with various concentrations of the test compounds in order to measure Ki values.

IKZF3 = IKZF3 degradation assay, H929 cell line (western blot densitometry); type: cell-based; conditions: H929 cells, after 24 h
Procedure: as §1, with “penicillin/streptomycin and” for “penicillin/streptomycin,”
Densitometry values are normalized to the loading control (β-ACTIN) and presented as % of DMSO control in Tables 4A and 4B, below, using the following labels: • ≤25% for 0-25% of IKZF3 protein reduction, • >25% for 26-74% of IKZF3 protein reduction, • ≥75% for 75-100% of IKZF3 protein reduction.

Chain of CRBN-DDB1 protein complex (Q96SW2 whole entry): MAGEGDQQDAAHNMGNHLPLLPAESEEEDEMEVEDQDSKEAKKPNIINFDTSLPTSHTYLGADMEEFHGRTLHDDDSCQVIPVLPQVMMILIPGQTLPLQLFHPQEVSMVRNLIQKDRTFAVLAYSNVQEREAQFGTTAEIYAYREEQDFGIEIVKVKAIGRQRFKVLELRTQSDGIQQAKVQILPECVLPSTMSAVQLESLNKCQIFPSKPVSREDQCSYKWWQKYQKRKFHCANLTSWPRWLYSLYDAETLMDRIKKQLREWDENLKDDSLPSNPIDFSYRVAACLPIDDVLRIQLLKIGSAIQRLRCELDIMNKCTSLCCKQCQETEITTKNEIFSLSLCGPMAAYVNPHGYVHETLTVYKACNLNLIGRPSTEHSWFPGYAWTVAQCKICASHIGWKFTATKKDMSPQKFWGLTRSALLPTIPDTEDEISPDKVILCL
Chain of CRBN-DDB1 protein complex (Q16531 whole entry partner): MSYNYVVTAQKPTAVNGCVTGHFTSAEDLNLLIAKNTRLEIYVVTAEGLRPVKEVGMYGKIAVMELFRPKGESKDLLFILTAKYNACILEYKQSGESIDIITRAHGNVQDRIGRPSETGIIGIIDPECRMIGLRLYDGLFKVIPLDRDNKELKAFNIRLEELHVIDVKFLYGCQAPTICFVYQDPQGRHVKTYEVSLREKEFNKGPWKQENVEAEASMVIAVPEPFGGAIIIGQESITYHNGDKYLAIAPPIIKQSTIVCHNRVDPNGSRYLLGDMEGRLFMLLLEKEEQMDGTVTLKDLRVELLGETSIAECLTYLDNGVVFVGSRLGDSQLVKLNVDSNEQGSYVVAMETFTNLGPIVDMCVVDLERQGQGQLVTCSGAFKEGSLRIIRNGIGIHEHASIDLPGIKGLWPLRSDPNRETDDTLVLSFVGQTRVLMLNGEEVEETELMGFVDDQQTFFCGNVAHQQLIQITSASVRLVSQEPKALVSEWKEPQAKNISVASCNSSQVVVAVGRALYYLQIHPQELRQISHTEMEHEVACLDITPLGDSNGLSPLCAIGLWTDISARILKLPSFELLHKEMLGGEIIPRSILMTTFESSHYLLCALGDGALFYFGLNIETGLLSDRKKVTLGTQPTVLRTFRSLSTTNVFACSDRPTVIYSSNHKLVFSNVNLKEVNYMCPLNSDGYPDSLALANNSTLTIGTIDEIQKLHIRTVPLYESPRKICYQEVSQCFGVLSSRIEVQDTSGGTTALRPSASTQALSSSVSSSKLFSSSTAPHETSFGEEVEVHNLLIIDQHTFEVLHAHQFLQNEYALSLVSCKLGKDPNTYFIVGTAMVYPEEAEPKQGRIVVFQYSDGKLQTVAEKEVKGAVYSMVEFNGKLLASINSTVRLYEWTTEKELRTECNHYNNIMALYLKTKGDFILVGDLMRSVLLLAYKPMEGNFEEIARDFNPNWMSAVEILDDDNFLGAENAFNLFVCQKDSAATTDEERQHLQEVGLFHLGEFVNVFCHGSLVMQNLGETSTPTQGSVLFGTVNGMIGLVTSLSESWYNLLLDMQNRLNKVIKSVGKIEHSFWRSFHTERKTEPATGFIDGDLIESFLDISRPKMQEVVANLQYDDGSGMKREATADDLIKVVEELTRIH

Cc1nc2cccc(N)c2cc1C1CCC(=O)NC1=O (stereo not shown) [Compound 1, 3-(5-amino-2-methylquinolin-3-yl)piperidine-2,6-dione]
viability at 2 µM (H929 (myeloma); at 2 μM): 61.2% | viability at 13 µM (H929 (myeloma); at 13 μM): 47.5% | viability at 50 µM (H929 (myeloma); at 50 μM): 32.9% | % of SALL4 protein reduction (SALL4; at 1 μM): ≤25% (≤25% for 0-25% of SALL4 protein reduction) | % of SALL4 protein reduction (SALL4; at 10 μM): >25% (>25% for 26-74% of SALL4 protein reduction) | % of SALL4 protein reduction (SALL4; at 20 μM): >25% (>25% for 26-74% of SALL4 protein reduction) | % of IKZF1 protein reduction (IKZF1; at 1 μM): >25% (>25% for 26-74% of IKZF1 protein reduction) | % of IKZF1 protein reduction (IKZF1; at 10 μM): ≥75% (≥75% for 75-100% of IKZF1 protein reduction) | % of IKZF1 protein reduction (IKZF1; at 20 μM): ≥75% (≥75% for 75-100% of IKZF1 protein reduction) | Ki [1]: 1 to 5 µM | % of IKZF3 (bottom band) protein reduction (IKZF3; at 1 μM): >25% (>25% for 26-74% of IKZF3 protein reduction) | % of IKZF3 (upper band) protein reduction (IKZF3; at 1 μM): >25% (>25% for 26-74% of IKZF3 protein reduction) | % of IKZF3 (bottom band) protein reduction (IKZF3; at 10 μM): ≥75% (≥75% for 75-100% of IKZF3 protein reduction) | % of IKZF3 (upper band) protein reduction (IKZF3; at 10 μM): ≥75% (≥75% for 75-100% of IKZF3 protein reduction) | % of IKZF3 (bottom band) protein reduction (IKZF3; at 20 μM): ≥75% (≥75% for 75-100% of IKZF3 protein reduction) | % of IKZF3 (upper band) protein reduction (IKZF3; at 20 μM): ≥75% (≥75% for 75-100% of IKZF3 protein reduction)
